Here are results for two molecules from paper PMC12670405, “Second-Generation AURKA-Targeting PROTACs: Structural Optimization toward in Vivo Degradation in Neuroblastoma” (Journal of Medicinal Chemistry, 2025).

For one assay, the system named is IMR-32. Description: IncuCyte live-cell imaging, antiproliferative effect. The format is cell-based. To be noted: Homo sapiens, IMR-32, 72 h, read-out: Cell GI50 72h, IMR-32. In a few lines: (§1)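 Cells seeded in 384-well plates (neuroblastoma 1200–5000, HEK293T 600 cells/well), adhered overnight, then compound-treated in duplicate or triplicate; confluency tracked by IncuCyte live-cell imaging. Normalized confluence averaged from 3 experiments; absolute GI50 interpolated from four-parameter variable-slope curves.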

The next assay concerns HEK293T. The description is as above. Particulars: Homo sapiens, HEK-293T. The assay is classed as cell-based. In a few lines:
as §1

Where two headings read alike, the source gives them in different places.

With `O=C1CCC(N2C(=O)c3cccc(OCCOCCOCCOCCNC(=O)[C@]4(Cc5cccc(Nc6nccs6)n5)CC[C@@H](Oc5cccc(Cl)c5F)CC4)c3C2=O)C(=O)N1` (stereo partly drawn) [SK2188, reference compound], in the assay on IMR-32, the GI50 (as a rule, the concentration giving 50% growth inhibition) worked out at 10 nM.

On to `Cc1cc(Nc2ccc(F)c(CC3(C(=O)N4CCC(F)(CN5CCN(c6ccc(N7CCC(=O)NC7=O)cn6)CC5)CC4)CCN(Cc4cccc(Cl)c4F)CC3)n2)n[nH]1` [SK5527], for which the concentration for 50% growth inhibition (GI50) with HEK293T (72 h, read-out: Cell GI50 72h) is 408 nM; in the assay on HEK293T (72h, read-out: GI50), roughly 500 nM.
